The source of these data is PubChem BioAssay AID330 (DTP/NCI, 2004).

Where “and” joins values, the source holds several entries; their conditions need not be identical. Identical values can stand only once. Inconclusive results and toxic doses are left out.

The test system of the test is P388 leukemia ip, CD2F1 mice, survival T/C. As to the kind of experiment: NCI In Vivo Anticancer Drug Screen. Data for tumor model P388 Leukemia (intraperitoneal) in CD2F1 (CDF1) mice. The conditions noted are these: endpoint: median survival time, higher = longer survival. The gist of the method: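 Mice carrying the transplanted tumor received test compound or vehicle. Survival was recorded in each group, and the value is the treated-group measurement divided by that of the vehicle-treated control group.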

[1] abbreviates: dose: 12.5 mg/kg/injection, schedule: Q01DX009 (ip), vehicle: Klucel (hydroxypropylcellulose) (HPC).
[2] abbreviates: dose: 25.0 mg/kg/injection, schedule: Q01DX009 (ip), vehicle: Klucel (hydroxypropylcellulose) (HPC).
[3] abbreviates: dose: 100.0 mg/kg/injection, schedule: Q01DX009 (ip), vehicle: Klucel (hydroxypropylcellulose) (HPC).
Where [4] appears, read: dose: 200.0 mg/kg/injection, schedule: Q01DX009 (ip), vehicle: saline with Tween-80.
Where [5] appears, read: dose: 50.0 mg/kg/injection, schedule: Q01DX009 (ip), vehicle: Klucel (hydroxypropylcellulose) (HPC).
Where [6] appears, read: dose: 200.0 mg/kg/injection, schedule: Q01DX009 (ip), vehicle: Klucel (hydroxypropylcellulose) (HPC).
Where [7] appears, read: dose: 50.0 mg/kg/injection, schedule: Q01DX005 (ip), vehicle: Klucel (hydroxypropylcellulose) (HPC).
[8] abbreviates: dose: 100.0 mg/kg/injection, schedule: Q01DX005 (ip), vehicle: Klucel (hydroxypropylcellulose) (HPC).
[9] abbreviates: dose: 200.0 mg/kg/injection, schedule: Q01DX005 (ip), vehicle: Klucel (hydroxypropylcellulose) (HPC).

As for `C=CC(=O)OCCN(CCCC)CCCC`, the T/C by setting is: (dose: 50.0 mg/kg/injection, schedule: Q01DX005 (ip), vehicle: saline) 103 % of control; (dose: 100.0 mg/kg/injection, schedule: Q01DX005 (ip), vehicle: saline) 95 % of control; (dose: 200.0 mg/kg/injection, schedule: Q01DX005 (ip), vehicle: saline) 97 % of control.

Regarding `C/C=C(/C)C(=O)OC/C(=C/C)C(=O)OC1C=CC(C)(C)C(C=O)=C1C` (configuration not stated), the T/C runs as follows: under setting [1], 93 % of control; under setting [2], 93 % of control; under setting [3], 93 % of control.

`Cc1c[n+]([O-])cc(=O)[nH]1`: the T/C (dose: 100.0 mg/kg/injection, schedule: Q01DX009 (ip), vehicle: saline with Tween-80) was 100 % of control; the T/C under setting [4] was 100 % of control; the T/C (dose: 400.0 mg/kg/injection, schedule: Q01DX009 (ip), vehicle: saline with Tween-80) was 100 % of control.

As to `COc1ccc(N=Nc2c(C)nn(C(=O)c3ccncc3)c2C)cc1`, the T/C under setting [5] was 108 % of control, the T/C under setting [3] is 99 % of control and the T/C under setting [6] is 101 % of control.

`C(=C\c1ccc2c(c1)OCO2)/c1ccncc1`: the T/C was 102 % of control (dose: 25.0 mg/kg/injection, schedule: Q01DX005 (ip), vehicle: Klucel (hydroxypropylcellulose) (HPC)); 94 % of control and 102 % of control under setting [7]; 95 % of control and 101 % of control under setting [8]; 100 % of control and 90 % of control under setting [9].

As to `COc1cc(-c2cnc3c(n2)c(=O)[nH]c(=O)n3C)ccc1O`, the T/C by setting is: (dose: 100.0 mg/kg/injection, schedule: Q04DX002 (ip), vehicle: saline) 104 % of control; (dose: 200.0 mg/kg/injection, schedule: Q04DX002 (ip), vehicle: saline) 103 % of control; (dose: 400.0 mg/kg/injection, schedule: Q04DX002 (ip), vehicle: saline) 95 % of control.

Turning to `COc1cc(C(=O)C2OC2c2ccc(Cl)cc2)c([N+](=O)[O-])cc1OC` (configuration not stated), the T/C under setting [7] was 93 % of control, the T/C under setting [8] is 98 % of control and the T/C under setting [9] was 96 % of control.

With `CCOC(=O)C(C#N)C=Nc1cccc(N(C)C)c1` (configuration not stated), the T/C is 108 % of control under setting [5], 117 % of control under setting [3] and 104 % of control under setting [6].

With `CCCCCCCCCCCCCC[N+](C)([O-])CCCCCC[N+](C)([O-])CCCCCCCCCCCCCC` (configuration not stated), the T/C is 94 % of control under setting [1]; 100 % of control under setting [2]; 92 % of control and 93 % of control under setting [5].

Regarding `Cc1cc(O)c(O)cc1C/C=C/c1ccccc1`, the T/C (dose: 2.5 mg/kg/injection, schedule: Q01DX009 (ip), vehicle: saline with Tween-80) is 101 % of control; the T/C (dose: 5.0 mg/kg/injection, schedule: Q01DX009 (ip), vehicle: saline with Tween-80) is 100 % of control; the T/C (dose: 10.0 mg/kg/injection, schedule: Q01DX009 (ip), vehicle: saline with Tween-80) is 100 % of control.

Consider `CCOC(=O)C(C(=O)C(F)(F)C(F)(F)C(F)(F)C(=O)C(C(=O)OCC)=P(c1ccccc1)(c1ccccc1)c1ccccc1)=P(c1ccccc1)(c1ccccc1)c1ccccc1`, for which the T/C reads like this: (dose: 100.0 mg/kg/injection, schedule: Q01DX001 (ip), vehicle: saline with Tween-80) 108 % of control; (dose: 200.0 mg/kg/injection, schedule: Q01DX001 (ip), vehicle: saline with Tween-80) 99 % of control; (dose: 400.0 mg/kg/injection, schedule: Q01DX001 (ip), vehicle: saline with Tween-80) 108 % of control.

Consider `CC1(Cc2c[nH]c(=O)[nH]c2=O)C(=O)NC(=O)NC1=O`, for which the T/C runs as follows: under setting [5], 105 % of control; under setting [3], 100 % of control; under setting [6], 98 % of control.

Turning to `O=C(O)/C=N/NS(=O)(=O)c1cccc([N+](=O)[O-])c1`, the T/C reads like this: (dose: 25.0 mg/kg/injection, schedule: Q01DX009 (ip), vehicle: other) 118 % of control and 119 % of control and 122 % of control; (dose: 50.0 mg/kg/injection, schedule: Q01DX009 (ip), vehicle: other) 117 % of control; (dose: 200.0 mg/kg/injection, schedule: Q01DX009 (ip), vehicle: other) 160 % of control.

In the case of `CC1CN(C(=O)Nc2ccc(Cl)c(Cl)c2)CC(C)O1` (configuration not stated), the T/C (dose: 6.25 mg/kg/injection, schedule: Q01DX009 (ip), vehicle: saline) is 100 % of control; the T/C (dose: 12.5 mg/kg/injection, schedule: Q01DX009 (ip), vehicle: saline) is 98 % of control; the T/C (dose: 25.0 mg/kg/injection, schedule: Q01DX009 (ip), vehicle: saline) was 86 % of control; the T/C under setting [4] is 100 % of control.

`C(=C\c1cc2cc(C3=NCCN3)ccc2o1)/c1ccc(C2=NCCN2)cc1`: the T/C (dose: 100.0 mg/kg/injection, schedule: Q04DX003 (ip), vehicle: saline) is 153 % of control and 157 % of control.

As for `CC(O)CCCC(C)O` (configuration not stated), the T/C reads like this: (dose: 50.0 mg/kg/injection, schedule: Q01DX009 (ip), vehicle: saline) 102 % of control; (dose: 100.0 mg/kg/injection, schedule: Q01DX009 (ip), vehicle: saline) 112 % of control; (dose: 200.0 mg/kg/injection, schedule: Q01DX009 (ip), vehicle: saline) 109 % of control.

For `O=C(O)Cc1ccc2c(c1)sc1nc(-c3ccc(Br)cc3)cn12`, the T/C reads like this: (dose: 100.0 mg/kg/injection, schedule: Q04DX003 (ip), vehicle: Klucel (hydroxypropylcellulose) (HPC)) 101 % of control; (dose: 200.0 mg/kg/injection, schedule: Q04DX003 (ip), vehicle: Klucel (hydroxypropylcellulose) (HPC)) 103 % of control; (dose: 400.0 mg/kg/injection, schedule: Q04DX003 (ip), vehicle: Klucel (hydroxypropylcellulose) (HPC)) 103 % of control.

With `O=C1c2ccccc2C(=O)c2c1cc1c(c2O)OCO1`, the T/C is 86 % of control (dose: 60.0 mg/kg/injection, schedule: Q01DX005 (ip), vehicle: saline with Tween-80); 89 % of control (dose: 120.0 mg/kg/injection, schedule: Q01DX005 (ip), vehicle: saline with Tween-80); 91 % of control (dose: 240.0 mg/kg/injection, schedule: Q01DX005 (ip), vehicle: saline with Tween-80).

On to `O=c1n(-c2ccccc2)c2nc3ccccc3nc2n1-c1ccc(Cl)c(Cl)c1`, for which the T/C was 90 % of control (dose: 50.0 mg/kg/injection, schedule: Q01DX005 (ip), vehicle: saline with Tween-80); 100 % of control (dose: 100.0 mg/kg/injection, schedule: Q01DX005 (ip), vehicle: saline with Tween-80); 109 % of control (dose: 200.0 mg/kg/injection, schedule: Q01DX005 (ip), vehicle: saline with Tween-80).
